Laboratory results as given in ChEMBL document CHEMBL1201862, “PubChem BioAssay data set” (2004).
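Dose response: 5 concentrations. Exposure: 48 h. Format: 96-well plates. Endpoint: linear interpolation; highest concentration if not reached. GI50 = concentration required for 50% inhibition of growth.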 Calls of active or inactive are those of the source. Rule as the data show it: active = GI50 up to about 1.1 µM and inactive = higher.

What was measured:
Test in all cases: NCI-60 cell line screen, 48 h
[1] = tested on: 786-0
[2] = tested on: A498
[3] = tested on: A549
[4] = tested on: ACHN
[5] = tested on: BT-549
[6] = tested on: CAKI-1
[7] = tested on: CCRF-CEM
[8] = tested on: COLO 205
[9] = tested on: DU-145
[10] = tested on: EKVX
[11] = tested on: HCC 2998
[12] = tested on: HCT-116
[13] = tested on: HCT-15
[14] = tested on: HL-60
[15] = tested on: HOP-62
[16] = tested on: HOP-92
[17] = tested on: HT-29
[18] = tested on: Hs-578T
[19] = tested on: K562
[20] = tested on: KM12
[21] = tested on: LOX IMVI
[22] = tested on: M14
[23] = tested on: MCF7
[24] = tested on: MDA-MB-231
[25] = tested on: MDA-MB-435
[26] = tested on: MDA-N
[27] = tested on: MOLT-4
[28] = tested on: Malme-3M
[29] = tested on: NCI-H226
[30] = tested on: NCI-H23
[31] = tested on: NCI-H460
[32] = tested on: NCI-H522
[33] = tested on: NCI/ADR-RES
[34] = tested on: OVCAR-3
[35] = tested on: OVCAR-4
[36] = tested on: OVCAR-5
[37] = tested on: OVCAR-8
[38] = tested on: PC-3
[39] = tested on: RXF 393
[40] = tested on: SF-268
[41] = tested on: SF-295
[42] = tested on: SF-539
[43] = tested on: SK-MEL-28
[44] = tested on: SK-MEL-2
[45] = tested on: SK-MEL-5
[46] = tested on: SK-OV-3
[47] = tested on: SN12C
[48] = tested on: SNB-19
[49] = tested on: SNB-75
[50] = tested on: SR
[51] = tested on: SW-620
[52] = tested on: T47D
[53] = tested on: TK-10
[54] = tested on: U-251
[55] = tested on: UACC-257
[56] = tested on: UACC-62
[57] = tested on: UO-31
[58] = tested on: IGROV-1
[59] = tested on: RPMI-8226

COc1cccc(N2C(=O)CSC2c2cccc(Oc3ccccc3)c2)c1 (stereo not drawn)
GI50 [1]: 6.47 µM (inactive) | GI50 [2]: 3.94 µM (inactive) | GI50 [3]: 9.53 µM (inactive) | GI50 [4]: 6.17 µM (inactive) | GI50 [5]: 12.3 µM (inactive) | GI50 [6]: 2.03 µM (inactive) | GI50 [7]: 9.33 µM (inactive) | GI50 [8]: 3.37 µM (inactive) | GI50 [9]: 20.4 µM (inactive) | GI50 [10]: 13.8 µM (inactive) | GI50 [11]: 3.14 µM (inactive) | GI50 [12]: 3.61 µM (inactive) | GI50 [13]: 4.21 µM | GI50 [14]: 4.39 µM (inactive) | GI50 [15]: 9.38 µM (inactive) | GI50 [16]: 6.21 µM (inactive) | GI50 [17]: 4.28 µM (inactive) | GI50 [18]: 5.78 µM (inactive) | GI50 [19]: 3.42 µM (inactive) | GI50 [20]: 4.35 µM (inactive) | GI50 [21]: 6.87 µM (inactive) | GI50 [22]: 4.79 µM (inactive) | GI50 [23]: 2.48 µM (inactive) | GI50 [24]: 7.78 µM (inactive) | GI50 [25]: 2.81 µM (inactive) | GI50 [26]: 1.89 µM (inactive) | GI50 [27]: 3.88 µM (inactive) | GI50 [28]: 9.02 µM (inactive) | GI50 [29]: 8.32 µM (inactive) | GI50 [30]: 11.5 µM (inactive) | GI50 [31]: 3.33 µM (inactive) | GI50 [32]: 3.34 µM (inactive) | GI50 [33]: 3.61 µM (inactive) | GI50 [34]: 4.79 µM (inactive) | GI50 [35]: 10.3 µM (inactive) | GI50 [36]: 18.5 µM (inactive) | GI50 [37]: 8.69 µM (inactive) | GI50 [38]: 5.3 µM (inactive) | GI50 [39]: 7.03 µM (inactive) | GI50 [40]: 6.79 µM (inactive) | GI50 [41]: 6.32 µM (inactive) | GI50 [42]: 4.27 µM (inactive) | GI50 [43]: 19 µM (inactive) | GI50 [44]: 4.28 µM (inactive) | GI50 [45]: 4.36 µM (inactive) | GI50 [46]: 16.1 µM (inactive) | GI50 [47]: 7.98 µM (inactive) | GI50 [48]: 8.41 µM (inactive) | GI50 [49]: 3.9 µM (inactive) | GI50 [50]: 3.79 µM (inactive) | GI50 [51]: 4.8 µM (inactive) | GI50 [52]: 9.04 µM (inactive) | GI50 [53]: 4.45 µM (inactive) | GI50 [54]: 5.22 µM (inactive) | GI50 [55]: 3.08 µM (inactive) | GI50 [56]: 3.21 µM (inactive) | GI50 [57]: 9.66 µM (inactive)

COc1ccc(C)c2c1N[C@](C)([C@]1(C)Nc3c(OC)ccc(C)c3C1=O)C2=O
GI50 [1]: > 100 µM (inactive) | GI50 [2]: > 100 µM (inactive) | GI50 [3]: > 100 µM (inactive) | GI50 [4]: > 100 µM (inactive) | GI50 [5]: > 100 µM (inactive) | GI50 [6]: > 100 µM (inactive) | GI50 [7]: > 100 µM (inactive) | GI50 [8]: > 100 µM (inactive) | GI50 [9]: > 100 µM (inactive) | GI50 [10]: > 100 µM (inactive) | GI50 [11]: > 100 µM (inactive) | GI50 [12]: > 100 µM (inactive) | GI50 [13]: > 100 µM | GI50 [15]: 94.4 µM (inactive) | GI50 [16]: 38 µM (inactive) | GI50 [17]: > 100 µM (inactive) | GI50 [18]: 39.3 µM (inactive) | GI50 [58]: > 100 µM (inactive) | GI50 [19]: > 100 µM (inactive) | GI50 [20]: 76.9 µM (inactive) | GI50 [21]: > 100 µM (inactive) | GI50 [22]: > 100 µM (inactive) | GI50 [23]: > 100 µM (inactive) | GI50 [24]: > 100 µM (inactive) | GI50 [25]: 44.7 µM (inactive) | GI50 [26]: > 100 µM (inactive) | GI50 [27]: > 100 µM (inactive) | GI50 [28]: > 100 µM (inactive) | GI50 [29]: > 100 µM (inactive) | GI50 [30]: > 100 µM (inactive) | GI50 [31]: > 100 µM (inactive) | GI50 [32]: > 100 µM (inactive) | GI50 [33]: > 100 µM (inactive) | GI50 [34]: > 100 µM (inactive) | GI50 [35]: > 100 µM (inactive) | GI50 [36]: > 100 µM (inactive) | GI50 [37]: 49.4 µM (inactive) | GI50 [38]: > 100 µM (inactive) | GI50 [59]: > 100 µM (inactive) | GI50 [39]: > 100 µM (inactive) | GI50 [40]: 51.6 µM (inactive) | GI50 [41]: 41.4 µM (inactive) | GI50 [42]: > 100 µM (inactive) | GI50 [43]: > 100 µM (inactive) | GI50 [44]: > 100 µM (inactive) | GI50 [45]: > 100 µM (inactive) | GI50 [46]: > 100 µM (inactive) | GI50 [47]: > 100 µM (inactive) | GI50 [48]: 68.9 µM (inactive) | GI50 [50]: > 100 µM (inactive) | GI50 [51]: > 100 µM (inactive) | GI50 [52]: > 100 µM (inactive) | GI50 [54]: > 100 µM (inactive) | GI50 [55]: > 100 µM (inactive) | GI50 [56]: > 100 µM (inactive) | GI50 [57]: > 100 µM (inactive)
